Values quoted from earlier work in paper PMC8463260 (Acta Pharmaceutica Sinica. B, 2020).

Columns and labels:
[1] = in vitro bioactivity compared to native insulin; ref [26],[28]-[31]
[2] = multimerization and serum albumin association; ref [5],[6]

Row | Substance | in vitro potency, fold lower vs native insulin [1] | in vivo half-life [2]
1 | insulin degludec | 6–8 fold | –
2 | insulin detemir: long-acting insulin derivative with hydrophobic modification on B29 lysine | – | 20 to 48 h
